Assay results published in patent EP0563345B1, “NOVEL 4-ARYLPIPERAZINES AND 4-ARYLPIPERIDINES” (MCNEILAB, INC., priority 1991, dated 1993).
Counter-ions that a name gives are not always drawn.

Columns and labels:
Male, Fischer 344 rats = assay: Block of Conditioned Avoidance Responding (Rat) test (CAR); conditions: for CAR 5 mg/kg IP Administration (% change CAR) / CAR 15 mg/kg IP Administration (% change CAR): negative number = blockade of CAR
Excerpt: Apparatus: Rat operant chambers, housed within sound attenuated booths, both from Capden Instruments Ltd., were used in this test. The test chamber (8" H x […] D) is constructed of aluminum and plexiglass with floor grid bars of stainless-steel (1/8" O.D.) spaced 9/16" apart. A stainless-steel operation level 1-1/2" wide projects 3/4" into the chamber and is positioned 2-2/8" above the grid floor. The shock stimulus is delivered via the grid floor by a Coulbourn Instruments solid state module. The parameters of the test and the collection of data are controlled automatically.
The rats are trained for two weeks to approach criterion levels in the avoidance test (90% avoidance rate). One-hour training sessions are run at about the same time each day for four or five days a week. The training session consists of 120 trials, with the conditioned stimuli presented every 30 sec. A trial begins with presentation of the conditioned stimuli (a light and a tone). If the rat responds by depressing the operant lever during the 15-second presentation of the conditioned stimuli, the trial is terminated and the animal is credited with a CAR. Failure to respond during the conditioned stimuli causes the presentation of the unconditioned stimulus (UCS), a 0.7 mA shock which is accompanied by a light and tone for five seconds. If the rat depressed the lever within the ten-second period, the shock and trial are terminated and an escape response recorded. If the rat fails to depress the lever during the UCS (shock), the trial is terminated after ten seconds of shock and the absence of a response is scored as a failure to escape. Intertrial level presses have no effect. If a rat performs at the 90% CAR level for two weeks, it is then run twice a week on the test schedule (see below) until baseline performance stabilized.
Trained rats are run in a one-hour session on two consecutive days at the same time and in the same test chamber each day. The sessions consist of 60 trials, one every minute. The conditioned stimuli are presented for 15 sec (maximum) and the unconditioned stimuli five sec (maximum). On Day 1, a vehicle solution is administered to the rats at a time preceding the trial run corresponding to the pretreatment time for the test compound. The route of administration and the volume of vehicle are also matched to that of the test compound.
The percent change in CAR on the drug treatment day compared to vehicle pretreatment day is the key measure. The percent change (% change) in CAR is determined using the following formula: % change CAR = ((% CAR for Day 2/% CAR for Day 1) x 100)-100 [formula]
A negative number indicates a blockade of CAR, whereas a positive number would indicate increased CAR. The test results are reported as the mean % change for the group of rats. Failure to escape, a measure of the general sedative potential of the compound, was calculated for each animal as follows: % Failures = # of Failures to Escape/# of trials [formula]
The % failures, viz., loss of escape, is also reported as a group mean. Failures to escape are monitored closely and a session is terminated if ten failures occurred.
In the Tables and formulas therein, OiPr is isopropoxy, Me is methyl, MeO is methoxy, Et is ethyl, Ph is phenyl, n-Bu is normal butyl, cC6H11 is cyclohexyl, BOC is t-butyloxycarbonyl, Ac is acetyl, and NT is not tested in that partcular test. The escape loss numbers are shown at CAR 5 mg/kg unless otherwise noted.

[1] = target: T1, D-2 (dopamine-2) receptors (Rattus norvegicus, UniProt P61169); assay: biochemical; assay type: binding, male, Wistar rats; conditions: rat striatum P2 fraction, 3H-spiperone 0.05 nM; read-out: Receptor Binding (Ki nM) D2
T1 construct: The D2 assay employed a P2 fraction from the striatum, the ligand ^3H-spiperone at a concentration of 0.05 nM; from tissue; host or cells: rat striatum, P2 fraction (synaptosomal membranes), male Wistar rats
T1 sequence (P61169 whole entry): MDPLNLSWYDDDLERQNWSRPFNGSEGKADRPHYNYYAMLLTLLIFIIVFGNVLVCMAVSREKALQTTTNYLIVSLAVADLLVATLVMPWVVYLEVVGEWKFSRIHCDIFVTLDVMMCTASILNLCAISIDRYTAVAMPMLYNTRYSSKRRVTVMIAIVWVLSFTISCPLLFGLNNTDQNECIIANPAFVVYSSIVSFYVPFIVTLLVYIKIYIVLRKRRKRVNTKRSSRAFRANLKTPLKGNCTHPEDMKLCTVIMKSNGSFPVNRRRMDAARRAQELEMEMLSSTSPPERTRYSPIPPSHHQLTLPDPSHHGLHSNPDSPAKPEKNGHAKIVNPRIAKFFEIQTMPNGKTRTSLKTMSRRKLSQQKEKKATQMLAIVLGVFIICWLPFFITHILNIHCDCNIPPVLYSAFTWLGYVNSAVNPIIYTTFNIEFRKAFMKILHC
Experimental: The dopamine D2 binding activity of compounds was determined using a P2 fraction (synaptosomal membranes) prepared from male, Wistar rats.
The data from this assay were analyzed by calculating the percent inhibition of the binding of the tritiated ligands by given concentrations of the test compound. Kl values, where given, were obtained from the logit analysis of concentration-inhibition curves.

Male Charles-River rats = assay: Rat Glass Bead Test (propulsive motility of the distal colon); assay type: in vivo; conditions: mean expulsion time of glass bead

SMILES | CAR 5 mg/kg IP Administration (% change CAR) (Male, Fischer 344 rats) [%] | (Escape Loss) % failures to escape (Male, Fischer 344 rats; at CAR 5 mg/kg IP) [%] | Ki [1] [nM] | Glass bead expulsion time (Male Charles-River rats; IP, 1.0 mg/kg) [min] | Glass bead expulsion time (Male Charles-River rats; PO, 10.0 mg/kg) [min] | CAR 15 mg/kg IP Administration (% change CAR) (Male, Fischer 344 rats) [%] | (Escape Loss) % failures to escape (Male, Fischer 344 rats; at CAR 15 mg/kg IP) [%]
CC1CCN(C(=O)c2cccc(CN3CCN(c4ccccc4OC(C)C)CC3)c2)CC1 [Compound 58] | -81 | 9 | 9 | 29 |  |  | 
CC(C)Oc1ccccc1N1CCN(Cc2cccc(S(=O)(=O)N3CCCCC3)c2)CC1 [Compound 105] | -7 | 0 | 18 |  | 10 |  | 
CC(C)Oc1ccccc1N1CCN(Cc2ccc(C(=O)N3CCCCC3)cc2)CC1.Cl.Cl [Compound 103, 1-[4-[[4-[2-(1-Methylethoxy)phenyl]-1-piperazinyl]methyl]benzoyl]piperidine Dihydrochloride] |  |  | ~100 | 43 |  |  | 
CCCc1ccccc1N1CCN(Cc2cccc(C(=O)N3CCCCCC3)c2)CC1 [Compound 82] |  |  | 41 | 16 |  | -8 | 0
CC(C)Oc1cc(F)ccc1N1CCN(Cc2cccc(C(=O)N3CCCCCC3)c2)CC1 [Compound 79] | -86 | 44 | 12 | 17 |  |  | 
CC(C)Oc1ccccc1N1CCN(Cc2cccc(C(=O)N3CCCC(C)(C)C3)c2)CC1 [Compound 57] | -86 | 25 | 4.8 | 22 |  |  | 
O=C(c1cccc(CN2CCN(c3ccccc3C(F)(F)F)CC2)c1)N1CCCCC1 [Compound 88] |  |  | 281 | 29 |  | -60 | 7
CCCCN(C)C(=O)c1cccc(CN2CCN(c3ccccc3OC(C)C)CC2)c1 [Compound 70] | -68 | 2 | 15 | 14 |  |  | 
CC(C)Oc1ccccc1N1CCN(Cc2cccc(C(=O)N3CCN(c4ccccc4)CC3)c2)CC1 [Compound 62] | -28 | 23 | 10.4 | 21 |  |  | 
COc1cc2c(cc1OC)CN(C(=O)c1cccc(CN3CCN(c4ccccc4OC(C)C)CC3)c1)CC2 [Compound 60] |  |  | 11 | 18 |  | -93 | 7
COc1ccccc1N1CCN(Cc2cccc(C(=O)N3CCCCCCC3=O)c2)CC1 [Compound 86] |  |  | 121 | 22 |  | -27 | 17
CC(C)Oc1ccccc1N1CCN(Cc2cccc(C(=O)N3[C@H](C)CCC[C@@H]3C)c2)CC1 [Compound 59, 1-[3-[[4-[2-(1-Methylethoxy)phenyl]-1-piperazinyl]methyl]-benzoyl]-2,6-dimethylpiperidine hydrochloride (3:2)] | -72 | 10 | 7.2 | 43 |  |  | 
O=C(c1cccc(CN2CCN(c3ccccc3Cl)CC2)c1)N1CCCCC1 [Compound 89] |  |  |  | 16 |  | -68 | 0
CC(C)Oc1ccccc1N1CCN(Cc2ccccc2C(=O)N2CCCCCC2)CC1 [Compound 113] |  |  | 11 |  | 15 |  | 
CCCc1ccccc1N1CCN(Cc2cccc(C(=O)N3CCCCC3)c2)CC1 [Compound 81] |  |  |  | 22 |  | -8 | 0
CC(C)Oc1ccccc1N1CCN(Cc2cccc(C(=O)N3CCCCC3=O)c2)CC1.O=C(O)/C=C/C(=O)O [Compound 66, 1-[3-[[4-[2-(1-Methylethoxy)phenyl]-1-piperazinyl]methyl]benzoyl]-2-piperidone Fumarate] |  |  |  | 18 |  | -92 | 0
O=C(c1cccc(CN2CCN(c3cccc4ccccc34)CC2)c1)N1CCCCC1 [Compound 35] |  |  |  |  | 19 | -19 | 0
CC(C)Oc1ccccc1N1CCN(Cc2cccc(S(=O)(=O)N3CCCC(C)(C)C3)c2)CC1 [Compound 104] | -4 | 2 | 45 |  | 50 |  | 
CC(C)Oc1ccccc1N1CCN(Cc2cccc(C(N)=O)c2)CC1 [Compound 77] | -89 | 27 | 46 | 12 |  |  | 
CCOc1ccccc1N1CCN(Cc2cccc(C(=O)N3CCCCCC3)c2)CC1 [Compound 83] | -97 | 26 |  | 21 |  |  | 
CCOC(=O)N1CCN(C(=O)c2cccc(CN3CCN(c4ccccc4OC(C)C)CC3)c2)CC1 [Compound 63] | -20 | 1 | 121 | 41 |  |  | 
CC(C)Oc1ccccc1N1CCN(Cc2ccccc2C(=O)N(C)C2CCCC2)CC1 [Compound 112] |  |  | 16 | 11 |  |  | 
O=C(c1cccc(CN2CCN(c3nsc4ccccc34)CC2)c1)N1CCCCC1 [Compound 32] | -90 | 8 |  | 41 |  |  | 
